Source: ChEMBL document CHEMBL1201862, “PubChem BioAssay data set” (2004)
Active and inactive are the calls of the source.

What was measured:
[1] = target: T1, Rac GTPase-activating protein 1 (Homo sapiens, UniProt Q9H0H5); assay: blockers of MgcRacGAP-driven Rac1 GTP hydrolysis – biochemical, ADP Hunter fluorescence, primary and confirmatory, confirmation (AID 624330); format: functional
T1 sequence (Q9H0H5 whole entry): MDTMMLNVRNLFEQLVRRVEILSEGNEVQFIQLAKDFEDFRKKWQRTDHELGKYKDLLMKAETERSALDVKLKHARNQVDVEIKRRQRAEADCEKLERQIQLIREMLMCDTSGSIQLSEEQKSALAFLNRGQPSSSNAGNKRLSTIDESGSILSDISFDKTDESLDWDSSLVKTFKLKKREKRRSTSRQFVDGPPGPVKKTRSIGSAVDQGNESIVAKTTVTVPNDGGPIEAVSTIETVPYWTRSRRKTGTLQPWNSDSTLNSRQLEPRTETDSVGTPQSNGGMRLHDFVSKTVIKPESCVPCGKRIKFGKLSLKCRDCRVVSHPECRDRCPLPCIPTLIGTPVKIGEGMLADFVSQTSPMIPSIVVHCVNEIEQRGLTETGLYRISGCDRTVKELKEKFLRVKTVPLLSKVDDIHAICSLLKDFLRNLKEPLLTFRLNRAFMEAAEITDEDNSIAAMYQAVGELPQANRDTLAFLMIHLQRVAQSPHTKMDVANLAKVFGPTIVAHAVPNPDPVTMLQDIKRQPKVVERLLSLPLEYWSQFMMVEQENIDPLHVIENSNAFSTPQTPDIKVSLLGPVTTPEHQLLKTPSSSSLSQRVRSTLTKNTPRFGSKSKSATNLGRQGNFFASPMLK

[2] = target: T2, Adenosylmethionine-8-amino-7-oxononanoate aminotransferase (Mycobacterium tuberculosis, UniProt P9WQ81); assay: Mycobacterium tuberculosis BioA enzyme inhibitor Measured in Biochemical System Using Plate Reader - 2163-02_Inhibitor_Dose_CherryPick_Activity.; format: functional, Mycobacterium tuberculosis UT205
T2 sequence (P9WQ81 whole entry): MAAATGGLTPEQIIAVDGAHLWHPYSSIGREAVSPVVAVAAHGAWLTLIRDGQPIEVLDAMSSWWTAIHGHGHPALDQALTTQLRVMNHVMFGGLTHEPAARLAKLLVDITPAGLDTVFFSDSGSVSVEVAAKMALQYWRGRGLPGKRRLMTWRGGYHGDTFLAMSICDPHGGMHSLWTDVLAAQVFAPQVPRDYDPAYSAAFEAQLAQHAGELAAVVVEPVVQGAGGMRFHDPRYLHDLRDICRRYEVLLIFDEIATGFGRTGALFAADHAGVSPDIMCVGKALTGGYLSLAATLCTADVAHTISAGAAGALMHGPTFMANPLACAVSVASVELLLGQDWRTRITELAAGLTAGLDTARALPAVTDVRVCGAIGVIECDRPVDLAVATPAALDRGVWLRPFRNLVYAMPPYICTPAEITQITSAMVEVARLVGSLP

[3] = target: ADP-ribosylation factor GTPase-activating protein 1 (Rattus norvegicus, UniProt Q62848); assay: Fluorescence polarization-based biochemical high throughput dose response screening assay to identify inhibitors of ADP-ribosylation factor GTPase activating protein 1 (ARFGAP1).; format: functional
[4] = fluconazole-exposed Candida albicans growth modulators – fluorescence, retest, confirmation (AID 2467); format: functional, cell-based
[5] = NIH-3T3 fibroblast cytotoxicity, dose response, cytotoxicity control, cell-based, fluorescence, Alamar Blue, secondary assay (AID 2327); format: functional;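 further: NIH-3T3 mouse fibroblasts cultured with fluconazole at 8 µg/mL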
[6] = target: T3, Apoptotic protease-activating factor 1 (Homo sapiens, UniProt O14727); format: functional
T3 sequence (O14727 whole entry): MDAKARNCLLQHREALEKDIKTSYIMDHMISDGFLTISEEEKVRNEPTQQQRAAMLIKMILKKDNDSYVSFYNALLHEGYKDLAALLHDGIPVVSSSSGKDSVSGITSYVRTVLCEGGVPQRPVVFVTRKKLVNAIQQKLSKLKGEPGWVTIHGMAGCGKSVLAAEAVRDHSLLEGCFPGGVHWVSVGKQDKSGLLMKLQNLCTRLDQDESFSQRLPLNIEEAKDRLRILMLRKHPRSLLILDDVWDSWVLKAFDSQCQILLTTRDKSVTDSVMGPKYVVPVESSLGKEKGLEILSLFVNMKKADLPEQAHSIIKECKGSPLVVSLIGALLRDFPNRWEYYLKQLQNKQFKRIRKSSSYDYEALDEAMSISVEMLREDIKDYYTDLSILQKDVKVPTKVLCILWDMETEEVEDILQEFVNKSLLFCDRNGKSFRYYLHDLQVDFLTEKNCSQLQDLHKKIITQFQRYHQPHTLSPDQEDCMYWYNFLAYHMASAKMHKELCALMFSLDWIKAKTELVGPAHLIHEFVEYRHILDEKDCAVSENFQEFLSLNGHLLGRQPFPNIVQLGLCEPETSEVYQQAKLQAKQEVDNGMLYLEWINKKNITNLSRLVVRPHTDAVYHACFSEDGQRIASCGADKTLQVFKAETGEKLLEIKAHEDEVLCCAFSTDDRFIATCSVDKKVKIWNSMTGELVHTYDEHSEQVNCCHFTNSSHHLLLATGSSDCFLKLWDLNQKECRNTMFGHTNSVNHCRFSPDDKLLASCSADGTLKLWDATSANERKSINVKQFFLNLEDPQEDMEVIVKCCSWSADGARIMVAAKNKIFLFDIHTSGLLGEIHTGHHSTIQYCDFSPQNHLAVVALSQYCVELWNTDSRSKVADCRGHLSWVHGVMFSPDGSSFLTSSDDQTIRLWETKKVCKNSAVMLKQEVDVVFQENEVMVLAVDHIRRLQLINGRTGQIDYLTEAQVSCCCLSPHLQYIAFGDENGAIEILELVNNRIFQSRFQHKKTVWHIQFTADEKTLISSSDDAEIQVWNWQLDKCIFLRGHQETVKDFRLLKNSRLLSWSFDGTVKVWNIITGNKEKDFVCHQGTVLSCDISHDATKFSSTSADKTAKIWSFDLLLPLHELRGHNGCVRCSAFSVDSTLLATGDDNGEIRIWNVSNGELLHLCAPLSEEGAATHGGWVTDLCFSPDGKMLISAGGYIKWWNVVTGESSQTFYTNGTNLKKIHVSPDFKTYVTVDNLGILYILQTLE

[7] = target: T4, Sentrin-specific protease 1 (Homo sapiens, UniProt Q9P0U3); assay: SENP1 catalytic domain blockers, concentration series – biochemical, kinetic FRET, dose response (AID 651697); format: functional; conditions: read-out: IC50_Mean
T4 sequence (Q9P0U3 whole entry): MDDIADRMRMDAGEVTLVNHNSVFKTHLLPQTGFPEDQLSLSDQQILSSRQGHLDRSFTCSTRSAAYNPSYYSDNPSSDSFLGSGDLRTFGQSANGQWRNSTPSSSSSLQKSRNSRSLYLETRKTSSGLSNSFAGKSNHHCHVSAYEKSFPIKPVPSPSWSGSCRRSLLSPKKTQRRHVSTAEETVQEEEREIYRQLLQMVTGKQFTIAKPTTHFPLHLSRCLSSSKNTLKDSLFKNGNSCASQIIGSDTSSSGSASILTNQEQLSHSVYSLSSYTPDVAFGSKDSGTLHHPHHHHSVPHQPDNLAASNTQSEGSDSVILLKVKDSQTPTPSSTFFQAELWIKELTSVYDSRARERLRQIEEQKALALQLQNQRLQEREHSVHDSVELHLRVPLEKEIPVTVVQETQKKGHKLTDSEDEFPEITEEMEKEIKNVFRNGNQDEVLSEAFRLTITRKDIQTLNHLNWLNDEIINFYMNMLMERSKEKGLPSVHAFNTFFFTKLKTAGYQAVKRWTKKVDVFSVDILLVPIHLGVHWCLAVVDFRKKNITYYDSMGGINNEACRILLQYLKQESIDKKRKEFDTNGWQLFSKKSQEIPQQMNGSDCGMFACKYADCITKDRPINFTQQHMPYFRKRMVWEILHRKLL

[8] = target: T4, Sentrin-specific protease 1; assay: Dose response confirmation of small molecule inhibitors of the catalytic domain of the SUMO protease, SENP1 in a FRET assay.; format: functional; conditions: read-out: IC50_Mean
[9] = Counterscreen for inhibitors of Trypanosoma brucei methionyl tRNA synthetase (MetRS): Luminescence-based cell-based high throughput dose response assay to identify compounds that are cytotoxic to Jurkat human T lymphocyte cells.; format: functional
[10] = target: T5, DNA repair and recombination protein RAD54-like (Homo sapiens, UniProt Q92698); assay: RAD54 Holliday junction migration blockers – biochemical, fluorescence, cherry-picked samples, dose series, confirmation (AID 651657); format: functional
T5 sequence (Q92698 whole entry): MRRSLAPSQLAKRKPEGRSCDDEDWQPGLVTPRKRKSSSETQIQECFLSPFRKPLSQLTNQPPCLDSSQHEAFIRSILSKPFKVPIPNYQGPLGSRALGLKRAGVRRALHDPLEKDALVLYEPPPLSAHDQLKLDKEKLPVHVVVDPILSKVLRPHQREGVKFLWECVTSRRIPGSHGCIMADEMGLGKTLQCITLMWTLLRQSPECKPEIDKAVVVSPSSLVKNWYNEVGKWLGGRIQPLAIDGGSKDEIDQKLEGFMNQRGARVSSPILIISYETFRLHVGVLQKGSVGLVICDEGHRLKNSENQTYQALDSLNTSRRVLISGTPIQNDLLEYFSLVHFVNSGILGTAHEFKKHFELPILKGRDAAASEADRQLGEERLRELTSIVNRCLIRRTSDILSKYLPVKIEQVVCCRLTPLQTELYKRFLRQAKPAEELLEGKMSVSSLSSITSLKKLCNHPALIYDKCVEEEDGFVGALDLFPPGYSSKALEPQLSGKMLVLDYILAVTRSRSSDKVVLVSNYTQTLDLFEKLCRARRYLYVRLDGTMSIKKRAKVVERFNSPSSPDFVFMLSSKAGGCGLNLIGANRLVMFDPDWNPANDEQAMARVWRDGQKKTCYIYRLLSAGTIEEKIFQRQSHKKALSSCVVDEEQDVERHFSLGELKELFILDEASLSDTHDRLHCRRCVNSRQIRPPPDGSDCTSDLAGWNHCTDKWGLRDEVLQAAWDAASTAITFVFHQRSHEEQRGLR

[11] = microbe, parasite or virus in culture; format: functional; conditions: Mycobacterium tuberculosis
[12] = alpha-synuclein stem-loop luciferase translation blockers – H4 neuroglioma cells, luminescence, confirmation (AID 1988); format: functional, cell-based
[13] = Luminescence Cell-Based Dose Response HTS to Identify Inhibitors of 5'UTR Stem-Loop Driven Prion Protein mRNA Translation in H4 Neuroglioblastoma Cells. [Related pubchem assays: 1827 (Project Summary), 1813 (Primary HTS)]; format: functional
INS1 = assay: INS-1E survival protection against cytokine death – cell-based, luminescence, retest, dose response (AID 449756); format: functional; conditions: Rattus norvegicus;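 further: cell death triggered by IL-1 beta plus TNF-alpha plus IFN-gamma mixture; protective hits raise ATP signal compared with cytokine alone wells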
[14] = luciferase reporter signal suppression in cells – H4 neuroglioma cells, luminescence, dose response (AID 1990); format: functional, cell-based
[15] = target: T6, Ubiquitin-conjugating enzyme E2 N (Homo sapiens, UniProt P61088); format: functional;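 further: Dose-response confirmation in a TR-FRET assay detecting UBC13-driven polyubiquitin chain formation, inhibition measured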
T6 sequence (P61088 whole entry): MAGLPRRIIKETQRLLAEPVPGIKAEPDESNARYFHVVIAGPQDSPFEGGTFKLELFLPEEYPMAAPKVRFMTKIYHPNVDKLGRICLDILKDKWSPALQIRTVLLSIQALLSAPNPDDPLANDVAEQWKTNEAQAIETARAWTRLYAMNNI

[16] = DRD fibroblast viability loss – cell-based, non-viral oncogenic, luminescence, dose response (AID 1934); format: functional; conditions: Homo sapiens
BJ [17] = assay: cells; format: functional, cell-based; conditions: Homo sapiens
BJ [18] = assay: BJ-TERT fibroblast viability loss – cell-based, RAS-independent, luminescence, dose response (AID 1933); format: functional; conditions: Homo sapiens
BJ [19] = assay: BJ-TERT-LT-ST fibroblast viability loss – cell-based, RAS-independent, luminescence, dose response (AID 1935); format: functional; conditions: Homo sapiens;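 further: BJ fibroblasts immortalized with TERT plus LT and ST oncogenes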

ADP-ribosylation factor GTPase-activating protein 1, sequence (Q62848 whole entry): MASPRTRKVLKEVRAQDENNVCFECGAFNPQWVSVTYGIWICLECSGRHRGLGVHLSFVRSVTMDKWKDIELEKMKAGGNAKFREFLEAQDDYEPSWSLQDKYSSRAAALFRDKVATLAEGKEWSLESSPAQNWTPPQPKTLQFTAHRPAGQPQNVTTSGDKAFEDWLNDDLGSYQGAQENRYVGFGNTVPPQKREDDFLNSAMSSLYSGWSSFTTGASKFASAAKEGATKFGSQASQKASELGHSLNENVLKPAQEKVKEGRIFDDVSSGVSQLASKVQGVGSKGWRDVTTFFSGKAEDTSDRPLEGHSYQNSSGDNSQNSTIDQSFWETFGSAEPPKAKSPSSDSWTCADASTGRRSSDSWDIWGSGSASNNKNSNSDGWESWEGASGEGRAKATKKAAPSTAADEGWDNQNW

SMILES: COc1ccc(NC2CCCN(C(=O)c3ccc(C(C)=O)s3)C2)cc1 (stereo not given)
- IC50 [1]: 80.9 µM (active)
- AC50 [2]: 1.99 µM (active)

SMILES: Nc1nc(/C=C/c2cccnc2)nc(-c2ccccc2O)n1
- IC50 [3]: 165 µM (inactive)

SMILES: COc1cc(/C=C/C(=O)Nc2cccnc2)cc(OC)c1OC
- EC50 [4]: > 38 µM (not active)
- EC50 [5]: > 160 µM (inactive)
- AC50 [2]: 0.629 µM (active)

SMILES: COc1ccc2[nH]c(=O)c(CNc3ccccc3OC)cc2c1
- IC50 [6]: 51.4 µM (active)

SMILES: COc1cc(OC)cc(C(=O)Nc2ccccc2-c2nnn(CC(=O)Nc3cc(C)on3)n2)c1
- IC50 [3]: 72.6 µM (inactive)

SMILES: Nc1ccc2c(c1)C(=O)N(CC1CCCO1)C2=O (stereo not given)
- IC50 [7]: 11.1 µM (active)
- IC50 [8]: 8.2 µM (active)

SMILES: O=C(Cc1ccc(Br)cc1)NNC(=O)Nc1ccc(Cl)cc1
- IC50 [9]: 83.3 µM (inactive)

SMILES: Nc1c(C(=O)NCCN2CCOCC2)c2nc3ccccc3nc2n1-c1ccccc1
- AC50 [10]: 52 µM (active)

SMILES: Cc1ccc(NC2=C(C(=O)c3ccccc3)N(C)S(=O)(=O)c3ccccc32)cc1
- IC50 [7]: 26.2 µM (inactive)
- IC50 [8]: 15.4 µM (active)

SMILES: COc1ccc(CNC[C@@H](CCCCN(C)Cc2ccc(OC)cc2)N2C[C@H](c3ccccc3)N(CCc3ccc(Cl)c(Cl)c3)C(=O)C2=O)cc1
- CC50 [11]: 6.46 µM (active)
- EC50 [12]: 9.63 µM (active)
- EC50 [13]: > 120 µM (not active)
- AC50 (INS1): 7.7 µM (active)
- EC50 [14]: > 120 µM (not active)
- IC50 [6]: 46.4 µM (active)
- IC50 [15]: > 20 µM (inactive)

SMILES: O=C(c1ccc([N+](=O)[O-])o1)N(Cc1nnc(-c2ccccc2Cl)o1)C1CC1
- IC50 [6]: > 100 µM (inactive)

SMILES: COc1ccc(-c2cc(NC=O)c3ncc(-c4cccc(C(=O)N(C)C)c4)n3c2)cn1
- AC50 [2]: 11.2 µM (active)

SMILES: COc1ccc(/C=N/NC(=O)CCn2cnc(-c3ccccc3)c2-c2ccccc2)cc1
- EC50 [16]: 1.68 µM (active)
- EC50 (BJ [17]): 46.3 µM (active)
- EC50 (BJ [18]): 1.9 µM (active)
- IC50 [6]: 25.2 µM (active)
- EC50 (BJ [19]): 1.75 µM (active)

SMILES: O=c1[nH]c2cc3ccccc3cc2nc1-c1nnnn1Cc1ccccc1
- IC50 [7]: 15.8 µM (active)
- IC50 [8]: 7.19 µM (active)
